Measured values published in patent US11236129B2, “IL-17A binding peptides and medical uses thereof” (Dompe' Farmaceutici S.P.A., priority 2018, dated 2022).
Residues, ends and D or L forms follow the SMILES beside them.

Each compound was assayed against IL-17RA/IL17RC dimerization induced by IL-17A (Homo sapiens, UniProt Q16552) (assay: IL-17RA/IL17RC dimerization assay in response to IL-17A (PathHunter Cytokine Receptor Assay)). Settings: IL-17A at EC80; read-out: IC50 in IL-17RA/IL7RC dimerization assay.
Sequence of IL-17RA/IL17RC dimerization induced by IL-17A (Q16552 24-155): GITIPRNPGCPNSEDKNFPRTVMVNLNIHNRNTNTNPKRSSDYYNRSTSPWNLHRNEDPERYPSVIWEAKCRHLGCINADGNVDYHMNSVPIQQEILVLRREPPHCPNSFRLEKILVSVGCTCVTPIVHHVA
Type: cell-based
Procedure: The peptides of Table 7 were tested for their ability to inhibit the binding of IL-17A to its receptor and the subsequent interaction of IL-17RA and IL17RC.
Interleukin receptor RA and RC dimerization assay (DiscoverX) was used to measure the interaction of the receptor chains IL-17RA and IL17RC upon activation by IL-17A in the absence or presence of the peptides of Table 7.
In the PathHunter® Cytokine Receptor Assay, one cytokine receptor chain is tagged with a small peptide epitope ProLink (PK) and the other chain is tagged with Enzyme Acceptor (EA). Ligand binding induces dimerization of the two receptors, facilitating complementation of PK and EA fragments. This interaction generates an active unit of b-galactosidase, which is detected using a chemiluminescent substrate. PathHunter cell lines were expanded from freezer stocks according to standard procedures. Cells were seeded in a total volume of 20 μL into white walled, 384-well microplates and incubated for the appropriate time prior to testing. For agonist activity inhibition, cells were incubated with sample to induce response. Intermediate dilution of sample stocks was performed to generate 5× sample in assay buffer. 5 μL of 5× sample was added to cells and incubated at 37° C. or room temperature for 60 minutes. Vehicle concentration was 1%. 5 μL of 6×EC80 agonist (IL-17A) in assay buffer was added to the cells and incubated at 37° C. for 6 to 16 hours depending on the assay. 1. […] For some assays, activity was detected using a high sensitivity detection reagent (PathHunter Flash Kit) to improve assay performance. In these assays, an equal volume of detection reagent (25 or 30 uL) was added to the wells, followed by a one hour incubation at room temperature. Microplates were read following signal generation with a PerkinElmer Envision™ instrument for chemiluminescent signal detection. Compound activity was analyzed using CBIS data analysis suite (ChemInnovation, CA). % Inhibition=100%×(1−(mean RLU of test sample−mean RLU of vehicle control)/(mean RLU of EC80 control−mean RLU of vehicle control)).

SMILES | IC50 [nM]
CC[C@H](C)[C@H](NC(=O)[C@H](CCC(N)=O)NC(=O)[C@@H](NC(=O)[C@H](Cc1c[nH]cn1)NC(=O)[C@@H](NC(C)=O)C(C)C)C(C)C)C(=O)N1CCC[C@H]1C(=O)N[C@@H](C)C(=O)N[C@@H](CC(=O)O)C(=O)N[C@@H](Cc1ccccc1)C(=O)N[C@@H](Cc1c[nH]c2ccccc12)C(=O)N[C@@H](CCC(=O)O)C(=O)N[C@@H](Cc1c[nH]c2ccccc12)C(=O)N[C@@H](Cc1ccccc1)C(=O)N[C@@H](CCCNC(=N)N)C(=O)N[C@@H](CCCNC(=N)N)C(N)=O [SEQ ID NO: 143] (Ac-VHVQIPADFWEWFRR-NH2) | < 500
CC(=O)N[C@H](C(=O)N[C@@H](Cc1c[nH]cn1)C(=O)N[C@H](C(=O)N[C@H](C(=O)N[C@@H](Cc1ccccc1)C(=O)N1CCC[C@H]1C(=O)N[C@@H](C)C(=O)N[C@@H](CC(=O)O)C(=O)N[C@@H](CC(C)C)C(=O)N[C@@H](Cc1c[nH]c2ccccc12)C(=O)N[C@@H](CCC(=O)O)C(=O)N[C@@H](Cc1c[nH]c2ccccc12)C(=O)N[C@@H](Cc1ccccc1)C(=O)N[C@@H](CCCNC(=N)N)C(=O)N[C@@H](CCCNC(=N)N)C(N)=O)[C@@H](C)O)C(C)C)C(C)C [SEQ ID NO: 144] (Ac-VHVTFPADLWEWFRR-NH2) | < 500
CC[C@H](C)[C@H](NC(=O)[C@@H](NC(=O)[C@@H](NC(=O)[C@H](Cc1c[nH]cn1)NC(=O)[C@@H](NC(C)=O)C(C)C)C(C)C)[C@@H](C)O)C(=O)N1CCC[C@H]1C(=O)N[C@@H](CCC(N)=O)C(=O)N[C@@H](CC(=O)O)C(=O)N[C@@H](Cc1ccccc1)C(=O)N[C@@H](Cc1c[nH]c2ccccc12)C(=O)N[C@@H](CCC(=O)O)C(=O)N[C@@H](Cc1c[nH]c2ccccc12)C(=O)N[C@@H](Cc1ccccc1)C(=O)N[C@@H](CCCNC(=N)N)C(=O)N[C@@H](CCCNC(=N)N)C(N)=O [SEQ ID NO: 145] (Ac-VHVTIPQDFWEWFRR-NH2) | < 500
CC[C@H](C)[C@H](NC(=O)[C@@H](NC(=O)[C@H](Cc1ccccc1)NC(=O)[C@H](Cc1c[nH]cn1)NC(=O)[C@@H](NC(C)=O)C(C)C)[C@@H](C)O)C(=O)N1CCC[C@H]1C(=O)N[C@@H](CCC(N)=O)C(=O)N[C@@H](CC(=O)O)C(=O)N[C@@H](Cc1c[nH]c2ccccc12)C(=O)N[C@@H](Cc1c[nH]c2ccccc12)C(=O)N[C@@H](CCC(=O)O)C(=O)N[C@@H](Cc1c[nH]c2ccccc12)C(=O)N[C@H](C(=O)N[C@@H](CCCNC(=N)N)C(=O)N[C@@H](CCCNC(=N)N)C(N)=O)C(C)C [SEQ ID NO: 146] (Ac-VHFTIPQDWWEWVRR-NH2) | < 500
CC(=O)N[C@H](C(=O)N[C@@H](Cc1c[nH]cn1)C(=O)N[C@@H](Cc1ccccc1)C(=O)N[C@H](C(=O)N[C@@H](Cc1ccccc1)C(=O)N1CCC[C@H]1C(=O)N[C@@H](CCC(N)=O)C(=O)N[C@@H](CC(=O)O)C(=O)N[C@@H](CC(C)C)C(=O)N[C@@H](Cc1ccc(O)cc1)C(=O)N[C@@H](CC(N)=O)C(=O)N[C@@H](Cc1c[nH]c2ccccc12)C(=O)N[C@H](C(=O)N[C@@H](CCCNC(=N)N)C(=O)N[C@@H](CCCNC(=N)N)C(N)=O)C(C)C)[C@@H](C)O)C(C)C [SEQ ID NO: 147] (Ac-VHFTFPQDLYNWVRR-NH2) | < 500
CC(=O)N[C@H](C(=O)N[C@@H](Cc1c[nH]cn1)C(=O)N[C@@H](Cc1ccccc1)C(=O)N[C@H](C(=O)N[C@@H](Cc1ccccc1)C(=O)N1CCC[C@H]1C(=O)N[C@@H](CCC(N)=O)C(=O)N[C@@H](CC(=O)O)C(=O)N[C@@H](CC(C)C)C(=O)N[C@@H](Cc1ccc(O)cc1)C(=O)N[C@@H](CC(N)=O)C(=O)N[C@@H](Cc1ccccc1)C(=O)N[C@H](C(=O)N[C@@H](CCCNC(=N)N)C(=O)N[C@@H](CCCNC(=N)N)C(N)=O)C(C)C)[C@@H](C)O)C(C)C [SEQ ID NO: 148] (Ac-VHFTFPQDLYNFVRR-NH2) | < 500
CC[C@H](C)[C@H](NC(=O)[C@@H](NC(=O)[C@@H](NC(=O)[C@H](Cc1c[nH]cn1)NC(=O)[C@@H](NC(C)=O)C(C)C)C(C)C)[C@@H](C)O)C(=O)N1CCC[C@H]1C(=O)N[C@@H](C)C(=O)N[C@@H](CC(=O)O)C(=O)N[C@@H](CC(C)C)C(=O)N[C@@H](Cc1ccc(O)cc1)C(=O)N[C@@H](CC(N)=O)C(=O)N[C@@H](Cc1ccccc1)C(=O)N[C@@H](Cc1ccccc1)C(=O)N[C@@H](CCCNC(=N)N)C(=O)N[C@@H](CCCNC(=N)N)C(N)=O [SEQ ID NO: 149] (Ac-VHVTIPADLYNFFRR-NH2) | < 500
CC(=O)N[C@H](C(=O)N[C@@H](Cc1c[nH]cn1)C(=O)N[C@@H](Cc1ccccc1)C(=O)N[C@@H](CCC(N)=O)C(=O)N[C@@H](Cc1ccccc1)C(=O)N1CCC[C@H]1C(=O)N[C@@H](CCC(N)=O)C(=O)N[C@@H](CC(=O)O)C(=O)N[C@@H](CC(C)C)C(=O)N[C@@H](Cc1c[nH]c2ccccc12)C(=O)N[C@@H](CCC(=O)O)C(=O)N[C@@H](Cc1c[nH]c2ccccc12)C(=O)N[C@H](C(=O)N[C@@H](CCCNC(=N)N)C(=O)N[C@@H](CCCNC(=N)N)C(N)=O)C(C)C)C(C)C [SEQ ID NO: 150] (Ac-VHFQFPQDLWEWVRR-NH2) | < 500
CC[C@H](C)[C@H](NC(=O)[C@@H](NC(=O)[C@H](Cc1ccccc1)NC(=O)[C@H](Cc1c[nH]cn1)NC(=O)[C@@H](NC(C)=O)C(C)C)[C@@H](C)O)C(=O)N1CCC[C@H]1C(=O)N[C@@H](CCC(N)=O)C(=O)N[C@@H](CC(=O)O)C(=O)N[C@@H](CC(C)C)C(=O)N[C@@H](Cc1ccc(O)cc1)C(=O)N[C@@H](CC(N)=O)C(=O)N[C@@H](Cc1c[nH]c2ccccc12)C(=O)N[C@@H](CCCNC(=N)N)C(=O)N[C@@H](CCCNC(=N)N)C(N)=O [SEQ ID NO: 151] (Ac-VHFTIPQDLYNWRR-NH2) | < 500
CC[C@H](C)[C@H](NC(=O)[C@@H](NC(=O)[C@H](Cc1ccccc1)NC(=O)[C@H](Cc1c[nH]cn1)NC(=O)[C@@H](NC(C)=O)C(C)C)[C@@H](C)O)C(=O)N1CCC[C@H]1C(=O)N[C@@H](C)C(=O)N[C@@H](CC(=O)O)C(=O)N[C@@H](CC(C)C)C(=O)N[C@@H](Cc1ccc(O)cc1)C(=O)N[C@@H](CC(N)=O)C(=O)N[C@@H](Cc1ccccc1)C(=O)N[C@H](C(=O)N[C@@H](CCCNC(=N)N)C(=O)N[C@@H](CCCNC(=N)N)C(N)=O)C(C)C [SEQ ID NO: 152] (Ac-VHFTIPADLYNFVRR-NH2) | < 500
CC[C@H](C)[C@H](NC(=O)[C@H](CCC(N)=O)NC(=O)[C@H](Cc1ccccc1)NC(=O)[C@H](Cc1c[nH]cn1)NC(=O)[C@@H](NC(C)=O)C(C)C)C(=O)N1CCC[C@H]1C(=O)N[C@@H](CCC(N)=O)C(=O)N[C@@H](CC(=O)O)C(=O)N[C@@H](CC(C)C)C(=O)N[C@@H](Cc1ccc(O)cc1)C(=O)N[C@@H](CC(N)=O)C(=O)N[C@@H](Cc1ccccc1)C(=O)N[C@@H](Cc1ccccc1)C(=O)N[C@@H](CCCNC(=N)N)C(=O)N[C@@H](CCCNC(=N)N)C(N)=O [SEQ ID NO: 153] (Ac-VHFQIPQDLYNFFRR-NH2) | < 500
CC(=O)N[C@H](C(=O)N[C@@H](Cc1c[nH]cn1)C(=O)N[C@@H](Cc1ccccc1)C(=O)N[C@@H](CCC(N)=O)C(=O)N[C@@H](Cc1ccccc1)C(=O)N1CCC[C@H]1C(=O)N[C@@H](CCC(N)=O)C(=O)N[C@@H](CCC(=O)O)C(=O)N[C@@H](Cc1c[nH]c2ccccc12)C(=O)N[C@@H](Cc1ccc(O)cc1)C(=O)N[C@@H](CC(N)=O)C(=O)N[C@@H](Cc1c[nH]c2ccccc12)C(=O)N[C@@H](Cc1ccccc1)C(=O)N[C@@H](CCCNC(=N)N)C(=O)N[C@@H](CCCNC(=N)N)C(N)=O)C(C)C [SEQ ID NO: 154] (Ac-VHFQFPQEWYNWFRR-NH2) | < 500
